Where a name gives a salt, the structure may show the parent alone. Activity calls are given as the source filed them.
Experiments:
[1] = inhibitors of intracellular T. cruzi replication, confirmation, NIH3T3 host cells, beta-gal luminescence (AID 2044); assay type: functional, cell-based;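 further: intracellular parasites grown in NIH/3T3 mouse fibroblasts as host cells; luminescent beta-galactosidase reporter signal from transgenic T. cruzi replicating inside host cells; inhibitors lower the luminescence signal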
[2] = cytotoxicity toward NIH3T3 fibroblasts, dose response, counter-screen, cell-based, ATP luminescence, mouse fibroblasts (AID 2010); assay type: functional;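 further: cells exposed to compound for about 90 hours before reading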
Caspase-6 = Caspase-6 (Homo sapiens, UniProt P55212); experiment: human caspase-6 inhibitors, dose response, biochemical, VEID-R110 fluorescence, cherry-pick (AID 720632)
Caspase-6, sequence (P55212 24-179 limits assumed): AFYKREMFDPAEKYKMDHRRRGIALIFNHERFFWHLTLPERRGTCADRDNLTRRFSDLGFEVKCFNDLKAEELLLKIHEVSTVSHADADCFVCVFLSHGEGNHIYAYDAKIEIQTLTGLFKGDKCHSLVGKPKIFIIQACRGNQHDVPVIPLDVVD
Caspase-6, sequence (P55212 194-293 limits assumed): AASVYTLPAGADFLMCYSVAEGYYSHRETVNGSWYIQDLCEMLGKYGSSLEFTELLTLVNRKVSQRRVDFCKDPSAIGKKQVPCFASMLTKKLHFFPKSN

[3] = biological target: Mitogen-activated protein kinase 10 (Homo sapiens, UniProt P53779); experiment: Dose response biochemical screening assay for inhibitors of c-Jun N-Terminal Kinase 3 (JNK3). [Related pubchem assays: 746 ]
Mitogen-activated protein kinase 10, sequence (P53779 whole entry): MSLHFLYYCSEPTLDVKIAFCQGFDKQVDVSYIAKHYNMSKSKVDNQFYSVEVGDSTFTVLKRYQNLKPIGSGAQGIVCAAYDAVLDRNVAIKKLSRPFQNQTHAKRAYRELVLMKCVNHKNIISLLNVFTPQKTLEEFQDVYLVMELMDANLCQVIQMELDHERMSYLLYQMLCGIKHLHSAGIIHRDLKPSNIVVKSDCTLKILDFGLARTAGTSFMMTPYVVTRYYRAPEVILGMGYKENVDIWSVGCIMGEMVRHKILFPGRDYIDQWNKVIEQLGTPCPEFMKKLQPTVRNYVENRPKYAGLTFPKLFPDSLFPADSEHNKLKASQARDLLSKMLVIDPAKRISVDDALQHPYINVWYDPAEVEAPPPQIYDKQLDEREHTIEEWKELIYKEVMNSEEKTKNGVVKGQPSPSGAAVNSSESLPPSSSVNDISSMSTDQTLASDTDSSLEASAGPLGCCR

[4] = Luminescence Cell-Based Dose Confirmation HTS to Identify Activators of 5'UTR Stem-Loop Driven Alpha-Synuclein mRNA Translation in H4 Neuroglioblastoma Cells. [Related pubchem assays: 1829 (Project Summary), 1814 (Primary HTS)]; assay type: functional
[5] = Luminescence Cell-Based Dose Response HTS to Identify Activators of Luciferase Translation or Activity in H4 […] Cells. [Related pubchem assays: 1829 (Project Summary), 1814 (Primary HTS)]; assay type: functional
H4 = experiment: Luminescence Cell-Based Dose Response HTS to Identify Activators of 5'UTR Stem-Loop Driven Prion Protein mRNA Translation in H4 Neuroglioblastoma Cells. [Related pubchem assays: 1829 (Project Summary), 1814 (Primary HTS)]; assay type: functional; details: Homo sapiens
[6] = Luminescence Cell-Based Dose Retest to Confirm Inhibitors of Cancer Stem Cells. [Related pubchem assays (depositor defined):AID2717, AID2721]; assay type: functional; details: Homo sapiens
Protein RecA = biological target: T1, Protein RecA (Mycobacterium tuberculosis, UniProt P9WHJ3); experiment: Fluorescence Cell-Free Homogeneous Dose Retest to Identify Inhibitors of RecA-Intein Splicing Activity. [Related pubchem assays (depositor defined):AID2097, AID2223, AID489010, AID492950]; assay type: functional
T1 sequence (P9WHJ3 whole entry): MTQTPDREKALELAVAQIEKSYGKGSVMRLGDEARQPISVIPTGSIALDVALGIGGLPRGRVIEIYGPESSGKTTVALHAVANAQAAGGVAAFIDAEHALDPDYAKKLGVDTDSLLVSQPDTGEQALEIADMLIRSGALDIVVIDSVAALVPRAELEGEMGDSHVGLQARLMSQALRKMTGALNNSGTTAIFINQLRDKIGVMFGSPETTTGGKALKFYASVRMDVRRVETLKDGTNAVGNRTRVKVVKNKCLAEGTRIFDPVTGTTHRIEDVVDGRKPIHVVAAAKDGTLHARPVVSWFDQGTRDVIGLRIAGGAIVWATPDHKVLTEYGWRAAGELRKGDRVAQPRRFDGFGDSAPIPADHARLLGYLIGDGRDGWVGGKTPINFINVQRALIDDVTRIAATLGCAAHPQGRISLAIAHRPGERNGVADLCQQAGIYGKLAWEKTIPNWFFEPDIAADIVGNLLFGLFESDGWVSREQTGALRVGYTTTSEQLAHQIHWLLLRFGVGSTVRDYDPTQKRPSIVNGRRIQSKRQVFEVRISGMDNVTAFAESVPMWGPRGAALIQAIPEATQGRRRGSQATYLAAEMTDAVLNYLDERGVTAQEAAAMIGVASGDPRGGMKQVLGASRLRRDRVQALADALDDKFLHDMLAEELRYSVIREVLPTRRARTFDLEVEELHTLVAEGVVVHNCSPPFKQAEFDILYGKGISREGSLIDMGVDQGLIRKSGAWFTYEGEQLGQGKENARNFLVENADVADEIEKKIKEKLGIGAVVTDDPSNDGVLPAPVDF

INS1 = experiment: beta cell apoptosis inhibitors, cytokine rescue, dose response, luminescence, retest (AID 449756); assay type: functional, cell-based; details: Rattus norvegicus;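 further: cell death triggered by IL-1 beta plus TNF-alpha plus IFN-gamma mixture; protective hits raise ATP signal compared with cytokine alone wells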
[7] = A549 cell cytotoxicity, dose response, cytotoxicity control, plate reader, cherry-pick, antagonist series (AID 743412); assay type: functional, cell-based
[8] = HepG2 cell cytotoxicity, dose response, cytotoxicity control, plate reader, cherry-pick, antagonist series (AID 743416); assay type: functional, cell-based
[9] = HEK293 cell cytotoxicity, dose response, cytotoxicity control, plate reader, cherry-picked samples (AID 743446); assay type: functional, cell-based
[10] = CTGF mRNA reduction under YAP1 overexpression, dose response, mechanism study for YAP1 pathway inhibitor project, DLD1 cells, RT-qPCR, cherry-pick (AID 1053127); assay type: functional, cell-based; details: DLD-1
[11] = A375 melanoma cell viability loss, dose response, counter-screen for MITF inhibitor project, CellTiter-Glo luminescence, dry powder, set 4 (AID 624364); assay type: functional, cell-based; details: A-375;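 further: A375 melanoma cells are MITF independent so this is a counter screen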
[12] = A375 melanoma cell cytotoxicity, dose response, counter-screen for MITF inhibitor project, CellTiter-Glo luminescence, dry powder, set 2 (AID 624489); assay type: functional, cell-based; details: A-375;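 further: actives are compounds lowering A375 viability meaning general cytotoxicity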
Paired box protein Pax-8 = Paired box protein Pax-8 (Homo sapiens, UniProt Q06710); experiment: inhibitors of PAX8-driven TPO luciferase reporter, dose response, RMG-I cells, cherry-pick (AID 687027); assay type: functional, cell-based;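 further: luciferase reporter driven by Pax8 target thyroperoxidase promoter measured by SteadyGlo luminescence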
Paired box protein Pax-8, sequence (Q06710 whole entry): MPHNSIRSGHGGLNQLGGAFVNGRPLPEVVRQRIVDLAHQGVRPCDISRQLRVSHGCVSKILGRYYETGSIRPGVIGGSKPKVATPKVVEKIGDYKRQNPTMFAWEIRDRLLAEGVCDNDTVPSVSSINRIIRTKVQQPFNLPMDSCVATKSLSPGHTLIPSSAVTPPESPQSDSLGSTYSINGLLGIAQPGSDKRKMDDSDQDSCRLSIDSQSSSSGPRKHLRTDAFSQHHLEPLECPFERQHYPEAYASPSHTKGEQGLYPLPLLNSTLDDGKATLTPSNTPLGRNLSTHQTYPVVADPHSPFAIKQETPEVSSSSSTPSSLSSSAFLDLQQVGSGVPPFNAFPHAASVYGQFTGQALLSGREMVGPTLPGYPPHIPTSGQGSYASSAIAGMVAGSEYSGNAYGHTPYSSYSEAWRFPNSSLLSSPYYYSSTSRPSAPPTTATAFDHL

[13] = A2780 ovarian cancer cell cytotoxicity, dose response, cytotoxicity control, plate reader, dry powder samples (AID 743046); assay type: functional, cell-based
[14] = Concentration-dependent survival of SW480 colon cancer line, luminescence detection with CellTiter-Glo, half-maximal inhibitory concentration (AID 1117338); assay type: functional
[15] = RKO cell viability reduction, dose response, CellTiter-Glo luminescence (AID 1117322); assay type: functional
[16] = cytotoxicity toward HCT116 cells – cell-based, CellTiter-Glo luminescence, IC50, dose response (AID 1117332); assay type: functional; details: HCT-116
[17] = SNU-C1 cell viability reduction, dose response, CellTiter-Glo luminescence (AID 1117323); assay type: functional, cell-based
[18] = cytotoxicity toward Colo320 cells – cell-based, CellTiter-Glo luminescence, IC50, dose response (AID 1117334); assay type: functional; details: COLO 320
[19] = cytotoxicity toward HT-29 cells – cell-based, CellTiter-Glo luminescence, IC50, dose response (AID 1117330); assay type: functional
[20] = CellTiter-Glo luminescent dose response of DLD-1 viability loss (AID 1117352); assay type: functional
[21] = HeLa 2N DNA content increase, dose response, cell-based, IC50 (AID 1117349); assay type: functional
[22] = HeLa 4N DNA content increase, dose response, cell-based, IC50 (AID 1117351); assay type: functional
[23] = HCT116 cell viability decrease, GSK3B pretreatment – CellTiter-Glo, IC50, dose response (AID 1117339); assay type: functional; details: HCT-116
[24] = inhibitors of non-replicating M. tuberculosis, dose response, luciferase, dry powder (AID 651619); assay type: functional; details: Mycobacterium tuberculosis
[25] = inhibitors of non-replicating M. tuberculosis, dose response, luciferase, dry powder (AID 651620); assay type: functional; details: Mycobacterium tuberculosis
[26] = inhibitors of Vif binding to APOBEC3G peptide, primary screen, biochemical, TR-FRET, GST-Vif 1-94, biotin-A3G peptide, dose response retest (AID 1117319); assay type: functional;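 further: TR-FRET signal of purified GST-Vif binding a biotinylated A3G peptide; inhibitors lower the FRET signal by blocking Vif and A3G binding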
[27] = biological target: E3 ubiquitin-protein ligase Mdm2 (Homo sapiens, UniProt Q00987); experiment: enhancers of MDM2-luciferase reporter signal, concentration-effect titration, project on inhibitors of MDM2 ubiquitin ligase, cellular assay, luminescent readout, 384-well plate format (AID 1394); assay type: functional;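 further: MDM2 E3 inhibitors raise luminescence so EC50 is for signal enhancement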
E3 ubiquitin-protein ligase Mdm2, sequence (Q00987 whole entry): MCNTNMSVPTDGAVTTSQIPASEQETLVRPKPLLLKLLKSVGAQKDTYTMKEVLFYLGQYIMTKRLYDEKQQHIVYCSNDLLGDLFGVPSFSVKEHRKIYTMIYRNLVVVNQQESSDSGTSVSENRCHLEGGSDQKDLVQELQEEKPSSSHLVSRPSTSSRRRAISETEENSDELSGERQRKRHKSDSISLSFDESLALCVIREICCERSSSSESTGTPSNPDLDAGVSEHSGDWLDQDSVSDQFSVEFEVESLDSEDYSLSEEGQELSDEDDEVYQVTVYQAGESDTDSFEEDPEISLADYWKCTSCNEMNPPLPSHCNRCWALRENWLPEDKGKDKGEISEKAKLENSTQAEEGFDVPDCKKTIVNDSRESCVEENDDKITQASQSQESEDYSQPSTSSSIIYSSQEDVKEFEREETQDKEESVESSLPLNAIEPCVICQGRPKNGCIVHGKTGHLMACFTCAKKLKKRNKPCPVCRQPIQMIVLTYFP

[28] = growth suppression of PTEN-null colon cells, dose response, cell-based, HCT116 PTEN knockout (AID 1047); assay type: functional;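 further: HCT116 colon tumor cells with PTEN knocked out; cells exposed to compound for 60 hours before readout; potency for loss of cell viability measured by luminescence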
[29] = growth suppression of beta-catenin-knockout colon cells, dose response, cell-based, HCT116, human colon tumor (AID 1045); assay type: functional;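 further: HCT116 colon tumor cells with beta catenin knocked out; cells exposed to compound for 60 hours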
[30] = biological target: T2, Heat shock factor protein 1 (Mus musculus, UniProt P38532); experiment: HSF1 potentiators in luciferase reporter cells, confirmation, cell-based, NIH3T3, luminescence, dose retest (AID 435004); assay type: functional;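 further: stress induced by proteasome inhibitor MG132 added 30 min after compound; luciferase reporter driven by HSF1 response element in NIH3T3 cells; actives raise luminescence as potentiators of the MG132 stress response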
T2 sequence (P38532 whole entry): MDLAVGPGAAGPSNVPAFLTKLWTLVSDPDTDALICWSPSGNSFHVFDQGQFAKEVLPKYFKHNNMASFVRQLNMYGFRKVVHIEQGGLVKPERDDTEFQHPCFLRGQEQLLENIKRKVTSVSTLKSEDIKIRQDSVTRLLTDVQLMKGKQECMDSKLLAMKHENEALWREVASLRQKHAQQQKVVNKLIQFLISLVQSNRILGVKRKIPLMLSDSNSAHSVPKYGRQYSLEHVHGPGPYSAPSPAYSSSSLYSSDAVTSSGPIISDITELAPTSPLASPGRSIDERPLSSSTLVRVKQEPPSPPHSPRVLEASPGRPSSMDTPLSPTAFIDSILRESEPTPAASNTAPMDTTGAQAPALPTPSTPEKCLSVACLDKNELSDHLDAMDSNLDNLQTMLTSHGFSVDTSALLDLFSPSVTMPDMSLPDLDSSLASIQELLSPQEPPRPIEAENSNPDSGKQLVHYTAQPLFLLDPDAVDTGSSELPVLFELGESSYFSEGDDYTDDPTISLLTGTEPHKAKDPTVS

Vero [31] = experiment: cells; assay type: functional, cell-based; details: Chlorocebus sabaeus
Vero [32] = experiment: cells; assay type: functional; details: Chlorocebus sabaeus
[33] = ADAM10 inhibitors, peptide cleavage, dose response, biochemical, QFRET (AID 743254);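 further: ADAM10 enzyme with the DM2 quenched FRET peptide as substrate; EDANS fluorescence gain as the protease cuts the substrate; inhibitor potency against ADAM10 proteolytic activity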
[34] = biological target: Disintegrin and metalloproteinase domain-containing protein 17 (Homo sapiens, UniProt P78536); experiment: ADAM17 protease inhibitors, dose response, counter-screen for ADAM10 exosite inhibitor project, biochemical, quenched FRET substrate (AID 743253)
Disintegrin and metalloproteinase domain-containing protein 17, sequence (P78536 whole entry, the tested form may be a part): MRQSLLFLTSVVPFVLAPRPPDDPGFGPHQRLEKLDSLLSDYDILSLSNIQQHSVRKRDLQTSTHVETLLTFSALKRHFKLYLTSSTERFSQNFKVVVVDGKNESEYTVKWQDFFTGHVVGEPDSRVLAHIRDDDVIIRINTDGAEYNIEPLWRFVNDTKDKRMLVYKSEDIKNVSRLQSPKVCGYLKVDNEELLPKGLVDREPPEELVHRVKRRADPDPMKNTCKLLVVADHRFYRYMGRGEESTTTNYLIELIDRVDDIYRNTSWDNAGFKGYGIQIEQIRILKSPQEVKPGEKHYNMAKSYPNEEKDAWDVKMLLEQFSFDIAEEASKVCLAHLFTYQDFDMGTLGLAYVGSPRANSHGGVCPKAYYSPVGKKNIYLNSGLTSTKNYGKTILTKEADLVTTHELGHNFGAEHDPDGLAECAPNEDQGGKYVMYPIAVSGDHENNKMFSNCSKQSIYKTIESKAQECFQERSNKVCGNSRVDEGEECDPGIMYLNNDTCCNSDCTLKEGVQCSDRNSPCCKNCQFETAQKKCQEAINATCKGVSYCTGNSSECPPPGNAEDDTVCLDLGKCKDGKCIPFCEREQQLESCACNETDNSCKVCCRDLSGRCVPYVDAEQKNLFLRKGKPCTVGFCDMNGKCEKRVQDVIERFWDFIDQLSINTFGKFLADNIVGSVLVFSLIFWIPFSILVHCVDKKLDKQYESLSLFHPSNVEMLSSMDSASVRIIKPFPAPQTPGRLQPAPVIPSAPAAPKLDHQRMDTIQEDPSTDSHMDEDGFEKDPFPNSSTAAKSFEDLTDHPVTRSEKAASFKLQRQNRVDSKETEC

[35] = HEp-2 cell cytotoxicity, dose response, cytotoxicity control for RSV inhibitor project, HTS (AID 2410); assay type: functional; details: human respiratory syncytial virus
Genome polyprotein = Genome polyprotein (dengue virus type 2, UniProt P29990); experiment: Dengue-2 NS5 methyltransferase inhibitors, primary screen, biochemical, confirmation dose response (AID 588689); assay type: functional
Genome polyprotein, sequence (P29990 2492-3391 limits assumed): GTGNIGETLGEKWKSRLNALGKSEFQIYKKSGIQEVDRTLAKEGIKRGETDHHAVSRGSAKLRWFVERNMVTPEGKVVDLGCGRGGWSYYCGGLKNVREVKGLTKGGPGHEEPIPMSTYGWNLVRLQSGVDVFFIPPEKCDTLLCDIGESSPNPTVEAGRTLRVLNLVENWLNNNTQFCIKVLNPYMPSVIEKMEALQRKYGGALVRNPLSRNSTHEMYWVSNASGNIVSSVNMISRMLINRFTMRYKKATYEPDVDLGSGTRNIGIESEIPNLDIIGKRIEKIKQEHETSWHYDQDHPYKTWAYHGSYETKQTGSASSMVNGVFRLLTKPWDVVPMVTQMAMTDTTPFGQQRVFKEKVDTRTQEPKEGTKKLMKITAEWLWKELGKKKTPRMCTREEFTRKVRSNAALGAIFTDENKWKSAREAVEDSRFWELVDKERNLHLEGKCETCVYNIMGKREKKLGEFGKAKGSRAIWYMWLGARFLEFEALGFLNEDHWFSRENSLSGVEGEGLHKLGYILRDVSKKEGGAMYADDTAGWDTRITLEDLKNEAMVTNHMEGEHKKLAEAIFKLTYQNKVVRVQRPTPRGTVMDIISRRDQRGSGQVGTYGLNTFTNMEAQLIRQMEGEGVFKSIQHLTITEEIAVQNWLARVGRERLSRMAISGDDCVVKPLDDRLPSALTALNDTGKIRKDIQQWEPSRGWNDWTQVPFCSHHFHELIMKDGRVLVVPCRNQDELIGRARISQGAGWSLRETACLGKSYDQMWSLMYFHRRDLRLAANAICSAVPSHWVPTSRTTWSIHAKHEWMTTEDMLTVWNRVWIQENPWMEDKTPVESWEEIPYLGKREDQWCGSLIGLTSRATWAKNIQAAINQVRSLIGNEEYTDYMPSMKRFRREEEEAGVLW

O=C(N/N=C/c1ccc([N+](=O)[O-])o1)C1CC1
EC50 [1]: 360 nM (active)
EC50 [2]: > 60 µM (not active)
AC50 (Caspase-6): 10 µM (active)

O=C(Nc1nccs1)c1ccc(Br)o1
IC50 [3]: > 31 µM (not active)

COc1cc(NC2CCCCC2O)c2nc(-c3ccc(Cl)cc3)ccc2c1 (configuration not stated)
EC50 [4]: 9.15 µM (active)
EC50 [5]: 12.9 µM (active)
EC50 (H4): > 60 µM (not active)
AC50 [6]: 2.07 µM (active)
EC50 (Protein RecA): 72.8 nM (active)
AC50 (INS1): 3.57 µM (active)
AC50 [7]: 20.3 µM (active)
AC50 [8]: 26.3 µM (active)
AC50 [9]: > 52 µM (inactive)

CC(C)(C)[S@@+]([O-])N1Cc2cc(C(=O)NCC(F)(F)F)nc(-c3cccc(-c4cccc(F)c4)c3)c2[C@H]1CCO
AC50 [10]: > 26 µM (inactive)

COc1ccc(C2=C(NC(C)=O)C(=O)c3ccccc3C2=O)cc1
AC50 [11]: 13.4 µM (active)
AC50 [12]: 8.33 µM (active)

CC(C)CC#Cc1ccc([C@@H]2[C@@H](CO)N3CCCCN(S(=O)(=O)c4ccc(F)cc4)C[C@H]23)cc1
AC50 (Paired box protein Pax-8): 12.4 µM (active)
AC50 [13]: 52.3 µM (active)

O=c1sc2ccccc2c(O)c1C1CC(c2ccc(-c3ccc(Br)cc3)cc2)Cc2ccccc21 (configuration not stated)
IC50 [14]: 0.187 µM (active)
IC50 [15]: 0.538 µM (active)
IC50 [16]: 0.485 µM (active)
IC50 [17]: 0.252 µM (active)
IC50 [18]: 0.735 µM (active)
IC50 [19]: 0.436 µM (active)
IC50 [20]: 0.239 µM (active)

COc1ccc(C2=C(N)C(=O)c3ccccc3C2=O)cc1
AC50 [11]: > 70 µM (inactive)
AC50 [12]: > 70 µM (inactive)

COc1cc(NC(C)CCCN)c2ncccc2c1 (configuration not stated) [PRIMAQUINE]
IC50 [21]: > 10 µM (inactive)
IC50 [14]: > 20 µM (inactive)
IC50 [15]: > 20 µM (inactive)
IC50 [16]: 1.88 µM (active)
IC50 [17]: > 20 µM (inactive)
IC50 [18]: > 20 µM (inactive)
IC50 [22]: > 10 µM (inactive)
IC50 [20]: > 20 µM (inactive)
IC50 [23]: > 20 µM (inactive)

O=C(CCCN1CCC(O)(c2cccc(C(F)(F)F)c2)CC1)c1ccc(F)cc1 [TRIFLUPERIDOL HYDROCHLORIDE]
IC50 [14]: > 20 µM (inactive)
IC50 [15]: > 20 µM (inactive)
IC50 [16]: > 20 µM (inactive)
IC50 [17]: > 20 µM (inactive)
IC50 [18]: > 20 µM (inactive)
IC50 [19]: > 20 µM (inactive)
IC50 [20]: > 20 µM (inactive)
IC50 [23]: > 20 µM (inactive)

Brc1cccc(-c2nnc(SCc3ccccn3)o2)c1
IC90 [24]: 4 µM (active)
IC90 [25]: 4 µM (active)

CC(=O)c1c(C)[nH]c(C(=O)OCn2nnc3ccccc3c2=O)c1C
IC50 [3]: 34.2 µM (not active)

CCOC(=O)/C(=C\c1ccccc1)NC(=O)c1ccccc1
IC50 [26]: > 100 µM (active)

O=C(Cc1ccncc1)N1CCCCN2[C@H](CO)[C@@H](c3ccc(C#Cc4ccccc4F)cc3)[C@H]2C1
AC50 [10]: 15.1 µM (active)

O=C(c1cc2ccccc2oc1=O)N1CCN(c2ccc(N3CCOCC3)nn2)CC1
IC50 [26]: > 100 µM (active)

COc1cc2c(cc1OC)CN(C(=O)c1ccco1)CC2
EC50 [27]: 11.1 µM (not active)

Cc1ccc(N(CC(=O)NCCc2ccc(F)cc2)S(=O)(=O)c2ccc(Cl)c([N+](=O)[O-])c2)c(C)c1
EC50 [28]: 14 µM (active)
EC50 [29]: 8.87 µM (active)
EC50 [30]: 17.1 µM (active)
IC50 (Vero [31]): > 25 µM (active)
CC50 (Vero [32]): 18.4 µM (active)
IC50 [33]: > 69.5 µM (inactive)
IC50 [34]: > 69.5 µM (inactive)

CCCCC(NC(=O)Cc1c(C)c2cc3c(-c4ccccc4)coc3c(C)c2oc1=O)C(=O)O (configuration not stated)
CC50 [35]: > 50 µM (active)
IC50 (Genome polyprotein): 51 µM (active)
AC50 (Caspase-6): 22 µM (active)
IC50 (cells): 45.9 µM (active)
